Reference: patent US11236102B2, “Oxabicycloheptane prodrugs” (Lixte Biotechnology, Inc., priority 2015, dated 2022)
“Also recorded” adds a separate entry of the source.

Tests used:
[1] = Oral absorption / oral bioavailability of 151 and 100; conditions: rat, in vivo
[2] = Pharmacokinetic study of 157 (iv, po) in SD rats: 157 and endothal in plasma, liver, brain; assay type: in vivo; set-up: Tmax: dose or concentration left out as unconfirmed; conditions: for Endothal plasma concentration: individual rats
Protocol: The blood, liver and brain tissue samples were collected at predetermined times from rats. […] Compound were diluted shortly before use in 4% sodium bicarbonate for sterile injection (this is the standard pediatric solution of NaHCO3 with a pH of about 8.5).
Compound 153 was freshly prepared by diluting the drugs shortly before use in 4% sodium bicarbonate for sterile injection (this is the standard pediatric solution of NaHCO3 with a pH of about 8.5). The final concentrations of 153 solutions were 0.25 mg/mL. The 153 solutions were administered via iv or po route at dose volume of 5 ml/kg according to the latest body weight. Compound 157 was freshly prepared by diluting the drugs shortly before use in 4% sodium bicarbonate for sterile injection (this is the standard pediatric solution of NaHCO3 with a pH of about 8.5). […] The 157 solutions were administered via iv or po route at dose volume of 5 ml/kg according to the latest body weight.
Twelve (12) female SD rats per group were dosed by iv with 153 or 157. The rats were fasted overnight prior to dosing, with free access to water. Foods were withheld for 2 hours post-dose. Blood, liver and brain tissue samples in two animals each group were collected at each time point, within 10% of the scheduled time for each time point. Two extra animals were used for analytic method development.
Blood (>0.3 mL) were collected via aorta abdominalis in anaesthetic animals into tubes containing heparin at 15 min, 1, 2, 6, 10 and 24 hours after iv administration. Liver and brain tissues were collected immediately after animal death. The liver and brain tissues were excised and rinsed with cold saline to avoid blood residual. Upon collection, each sample was placed on ice and the blood samples were subsequently centrifuged (4° C., 11000 rpm, 5 min) to separate plasma.
The obtained plasma, liver and brain tissue samples were stored at −70° C. until LC-MS/MS analysis.
Two (2) female SD rats per group were dosed by po with 153 or 157. The rats were fasted overnight prior to dosing, with free access to water. Foods were withheld for 2 hours post-dose. Blood samples (>0.3 mL) were collected via aorta abdominalis in anaesthetic animals into tubes containing heparin at 30 min, 1, 2, 6, 10 and 24 hours after po administration.
To each sample, 30 μL IS-D (for blank samples, 20 μL acetonitrile:water (1:1) was added) and 300 ul acetonitrile was added. The sample mixture was vortexed for approximately 3 min. After centrifugation at 10000 rpm for 5 min at 4° C., 100 μL of the upper layer was transferred to a new tube and added 200 μL 0.4% formic acid in water (pH6.0). The mixture was vortexed for approximately 3 min before injected onto the LC/MS/MS system for analysis.
On the day of the assay, the frozen liver and brain samples were thawed unassisted at room temperature. An about 200 mg weighed sample of each thawed tissue was placed into a plastic tube with water (0.6 mL) to facilitate homogenization. Tissue processing was conducted using a homogenizer for approximately 1 min, […] homogenate was transferred into a fresh Eppendorf tube. To each tube, 50 μL IS-D was added and mixed. Then 500 ul acetonitrile was added and the sample mixture was vortexed for approximately 3 min. After centrifugation at 10000 rpm for 5 min at 4° C., 100 μL of the upper layer was transferred to a new tube and evaporate the supernatant to dryness at 35° C. Reconstitute the residue with 200 μL of 0.4% formic acid in water (pH 6.0), and vortex for 3 min, submit for LC-MS/MS analysis.
Frozen unknown plasma samples were completely thawed at room temperature and vortexed thoroughly. With a pipette, 50 μL of plasma was transferred into a 2.0 mL Eppendorf tube. 50 μL of 0.1N HCl and 800 μL ethyl acetate were added into each sample. The sample mixture was vortexed for approximately 3 min.

[3] = Pharmacokinetic study of 100 (iv 0.5, 1.0, 1.5 mg/kg) in SD rats: 100 and endothal in plasma, liver, brain; assay type: in vivo; conditions: for Endothal brain concentration / Endothal plasma concentration: SD rats
Protocol: 100 was administrated via iv route at 0.5, 1.0 and 1.5 mg/kg into SD rats. The blood, liver and brain tissue samples were collected at predetermined times from rats.
Twelve (12) female SD rats per group were dosed by iv with 100. The rats were fasted overnight prior to dosing, with free access to water. Foods were withheld for 2 hours post-dose. Blood, liver and brain tissue samples in two animals each group were collected at each time point, within 10% of the scheduled time for each time point. Two extra animals were used for analytic method development. Blood (>0.3 mL) were collected via aorta abdominalis in anaesthetic animals into tubes containing heparin at 15 min, 1, 2, 6, 10 and 24 hours after iv administration. Liver and brain tissues were collected immediately after animal death. The liver and brain tissues were excised and rinsed with cold saline to avoid blood residual. Upon collection, each sample was placed on ice and the blood samples were subsequently centrifuged (4° C., 11000 rpm, 5 min) to separate plasma. The obtained plasma, liver and brain tissue samples were stored at −70° C. until LC-MS/MS analysis.
AUC0-∞ (AUCINF) is the area under the plasma concentration-time curve with last concentration extrapolated based on the elimination rate constant.

[4] = female, Sprague-Dawley, rat, in vivo, iv, 1.5 mg/kg
[5] = 100 iv 0.5 mg/kg, 24 hr, individual rats

With COC(=O)C1C2CCC(O2)C1C(=O)N1CCN(C)CC1 (centres unmarked) [Compound 151] as the molecule, how does the bioavailability [1] read?
Its bioavailability is ~60%.

For O=C(O)C1C2CCC(O2)C1C(=O)O (centres unmarked) [Endothal, 7-oxabicyclo[2.2.1]heptane-2,3-dicarboxylic acid], which “detectability in brain samples” value ([2]; endothal after single iv 157 at 1.5 mg/kg, 1.5 mg/kg) is on record?
Its value is “not detectable; also recorded: undetectable”.

And the Tmax ([2]; female, SD, rat, in vivo, po)?
The Tmax was 2 h.

What about the AUC [2, 4] of the same molecule?
The AUC was 0.374 µg·h/mL.

And the Cmax [2, 4]?
The Cmax was 3.72 µg/mL.

And the Endothal plasma concentration ([2]; iv administration of 157, 10 hr)?
The Endothal plasma concentration was “BLQ”.

And the Endothal plasma concentration ([2]; iv administration of 157, 24 hr)?
The Endothal plasma concentration was “BLQ”.

What about the Endothal plasma concentration ([2]; po administration of 157, 10 hr) of the same molecule?
Its Endothal plasma concentration is “BLQ”.

And the AUClast in liver ([2]; rat, in vivo, iv, 1.5 mg/kg)?
Its AUClast in liver is 15025 ng·h/g.

What about the Endothal brain concentration ([3]; 100 iv 0.5 mg/kg, 0.25 hr, individual rats) of the same molecule?
Its Endothal brain concentration is “BLQ”.

What about the Endothal brain concentration ([3]; 100 iv 0.5 mg/kg, 0.25 hr, mean) of the same molecule?
Its Endothal brain concentration is “BLQ”.

And the Endothal brain concentration ([3]; 100 iv 0.5 mg/kg, 1 hr, individual rats)?
Its Endothal brain concentration is “BLQ”.

And the Endothal brain concentration ([3]; 100 iv 0.5 mg/kg, 1 hr, mean)?
Its Endothal brain concentration is “BLQ”.

What about the Endothal brain concentration ([3]; 100 iv 0.5 mg/kg, 2 hr, individual rats) of the same molecule?
The Endothal brain concentration was “BLQ”.

What about the Endothal brain concentration ([3]; 100 iv 0.5 mg/kg, 2 hr, mean) of the same molecule?
The Endothal brain concentration was “BLQ”.

What about the Endothal brain concentration ([3]; 100 iv 0.5 mg/kg, 6 hr, individual rats) of the same molecule?
The Endothal brain concentration was “BLQ”.

And the Endothal plasma concentration ([3]; 100 iv 0.5 mg/kg, 6 hr, individual rats, 0.5 mg/kg)?
The Endothal plasma concentration was “BLQ”.

What about the Endothal brain concentration ([3]; 100 iv 0.5 mg/kg, 6 hr, mean) of the same molecule?
Its Endothal brain concentration is “BLQ”.

And the Endothal brain concentration ([3]; 100 iv 0.5 mg/kg, 10 hr, individual rats)?
Its Endothal brain concentration is “BLQ”.

What about the Endothal brain concentration ([3]; 100 iv 0.5 mg/kg, 10 hr, mean) of the same molecule?
Its Endothal brain concentration is “BLQ”.

What about the Endothal brain concentration [3, 5] of the same molecule?
The Endothal brain concentration was “BLQ”.

And the Endothal plasma concentration [3, 5]?
Its Endothal plasma concentration is “BLQ”.

And the Endothal brain concentration ([3]; 100 iv 0.5 mg/kg, 24 hr, mean)?
The Endothal brain concentration was “BLQ”.

What about the Endothal plasma concentration ([3]; 100 iv 0.5 mg/kg, 24 hr, mean) of the same molecule?
The Endothal plasma concentration was “BLQ”.

What about the Endothal brain concentration ([3]; 100 iv 1.0 mg/kg, 0.25 hr, individual rats) of the same molecule?
Its Endothal brain concentration is “BLQ”.

What about the Endothal brain concentration ([3]; 100 iv 1.0 mg/kg, 0.25 hr, mean) of the same molecule?
The Endothal brain concentration was “BLQ”.

And the Endothal brain concentration ([3]; 100 iv 1.0 mg/kg, 1 hr, individual rats)?
Its Endothal brain concentration is “BLQ”.

What about the Endothal brain concentration ([3]; 100 iv 1.0 mg/kg, 1 hr, mean) of the same molecule?
Its Endothal brain concentration is “BLQ”.

And the Endothal brain concentration ([3]; 100 iv 1.0 mg/kg, 2 hr, individual rats)?
The Endothal brain concentration was “BLQ”.

What about the Endothal brain concentration ([3]; 100 iv 1.0 mg/kg, 2 hr, mean) of the same molecule?
Its Endothal brain concentration is “BLQ”.

And the Endothal brain concentration ([3]; 100 iv 1.0 mg/kg, 6 hr, individual rats)?
The Endothal brain concentration was “BLQ”.

What about the Endothal brain concentration ([3]; 100 iv 1.0 mg/kg, 6 hr, mean) of the same molecule?
The Endothal brain concentration was “BLQ”.

What about the Endothal brain concentration ([3]; 100 iv 1.0 mg/kg, 10 hr, individual rats) of the same molecule?
The Endothal brain concentration was “BLQ”.

What about the Endothal brain concentration ([3]; 100 iv 1.0 mg/kg, 10 hr, mean) of the same molecule?
The Endothal brain concentration was “BLQ”.

And the Endothal brain concentration ([3]; 100 iv 1.0 mg/kg, 24 hr, individual rats)?
The Endothal brain concentration was “BLQ”.

What about the Endothal brain concentration ([3]; 100 iv 1.0 mg/kg, 24 hr, mean) of the same molecule?
Its Endothal brain concentration is “BLO”.

What about the Endothal brain concentration ([3]; 100 iv 1.5 mg/kg, 0.25 hr, individual rats) of the same molecule?
Its Endothal brain concentration is “BLQ”.

And the Endothal brain concentration ([3]; 100 iv 1.5 mg/kg, 0.25 hr, mean)?
Its Endothal brain concentration is “BLQ”.

What about the Endothal brain concentration ([3]; 100 iv 1.5 mg/kg, 1 hr, individual rats) of the same molecule?
Its Endothal brain concentration is “BLQ”.

What about the Endothal brain concentration ([3]; 100 iv 1.5 mg/kg, 1 hr, mean) of the same molecule?
Its Endothal brain concentration is “BLQ”.

And the Endothal brain concentration ([3]; 100 iv 1.5 mg/kg, 2 hr, individual rats)?
Its Endothal brain concentration is “BLQ”.

And the Endothal brain concentration ([3]; 100 iv 1.5 mg/kg, 2 hr, mean)?
Its Endothal brain concentration is “BLQ”.

What about the Endothal brain concentration ([3]; 100 iv 1.5 mg/kg, 6 hr, individual rats) of the same molecule?
The Endothal brain concentration was “BLQ”.

And the Endothal brain concentration ([3]; 100 iv 1.5 mg/kg, 6 hr, mean)?
The Endothal brain concentration was “BLQ”.

What about the Endothal brain concentration ([3]; 100 iv 1.5 mg/kg, 10 hr, individual rats) of the same molecule?
Its Endothal brain concentration is “BLQ”.

What about the Endothal brain concentration ([3]; 100 iv 1.5 mg/kg, 10 hr, mean) of the same molecule?
The Endothal brain concentration was “BLQ”.

What about the Endothal brain concentration ([3]; 100 iv 1.5 mg/kg, 24 hr, individual rats) of the same molecule?
Its Endothal brain concentration is “BLQ”.

What about the Endothal brain concentration ([3]; 100 iv 1.5 mg/kg, 24 hr, mean) of the same molecule?
The Endothal brain concentration was “BLQ”.

What about the half-life ([3]; Sprague-Dawley, rat, in vivo) of the same molecule?
The half-life was ~6 h.

What about the “detectability in brain samples” value ([3]; endothal after single iv 100 at 0.5, 1.0 and 1.5 mg/kg) of the same molecule?
Its value is “not detectable; also recorded: undetectable”.

What about the AUClast in plasma [3, 4] of the same molecule?
The AUClast in plasma was 0.546 to 4.476 µg·h/mL.

What about the Cmax [3, 4] of the same molecule?
The Cmax was 349 to 2960 ng/g.

What about the T1/2 in liver [3, 4] of the same molecule?
Its T1/2 in liver is 4.57 to 10.1 h.

What about the T1/2 in plasma [3, 4] of the same molecule?
Its T1/2 in plasma is 6.25 to 7.06 h.

What about the “mean Cmax in plasma” value [3, 4] of the same molecule?
The value was 0.577 to 1.23 µg/mL.

What about the AUClast in liver ([3]; rat, in vivo, iv, 1.5 mg/kg) of the same molecule?
The AUClast in liver was 2598 to 18434 ng·h/g.
